One assay concerns the target SST2 (Homo sapiens, UniProt P30874). Kind of assay: Hit Hunter cAMP XS+ assay, SST2 activation via Gi (reduction of forskolin-stimulated cAMP). In kind it is cell-based. The settings on record: for Emax: read-out: SST2 (EMax); for EC50: reduction of forskolin-stimulated cAMP, 4-parameter logistic fit, read-out: SST2 pEC50 (converted). The essentials:
(§1)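 Cells (10,000/well) incubated 30 min at 37 °C with compound under EC80 forskolin ([…] for SST2, 15 μM for SST5). cAMP reduction was detected by enzyme-fragment complementation chemiluminescence after 60 min and 180 min room-temperature reagent steps. Potency and efficacy were both measured.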

A further assay deals with SST5 (Homo sapiens, UniProt P35346). Briefly: Hit Hunter cAMP XS+ assay, SST5 activation via Gi (reduction of forskolin-stimulated cAMP). Particulars: for Emax: read-out: SST5 (EMax); for EC50: reduction of forskolin-stimulated cAMP, 4-parameter logistic fit, read-out: SST5 pEC50 (converted); for SST5/2 Selectivity: selectivity for SST5 over SST2. It counts as cell-based. An outline of the steps:
as §1

Setting [1] is: efficacy normalised to somatostatin 28 (basal 0%, 100% = signal with 50 nM somatostatin 28).

pEC50: −log10 of the molar value. Like-named read-outs stand apart in the source and are kept apart here. *1 amine or outer side, *2 acyl side, *3 side chain or, on linkers, in order; H or OH if unused. Where a SMILES comes first, the peptide text is derived from it. Side-chain parts run from the residue outwards. [ ]: non-standard residue; d: D form. The star is where a group is joined. Ala(piperidin-4-yl) = O=C([C@H](CC1CCN([*:3])CC1)N[*:1])[*:2]; dTrp(4-OMe) = COc1cccc2[nH]cc(C[C@@H](N)C(=O)O)c12; X2 = O=C([C@@H]1C[C@@H](Oc2ccncc2)CN1[*:1])[*:2]; dTrp(4-Me) = Cc1cccc2[nH]cc(C[C@@H](N)C(=O)O)c12; Ala(piperazin-1-yl) = N[C@@H](CN1CCNCC1)C(=O)O; Phe(3-Cl) = N[C@@H](Cc1cccc(Cl)c1)C(=O)O; Morpholine(3S-CO) = O=C(O)[C@@H]1COCCN1; Ethylenediamine = C(CN[*:2])N[*:1]; d(hPhe) = N[C@H](CCc1ccccc1)C(=O)O; Hyp = O=C(O)[C@@H]1C[C@@H](O)CN1; NMeF = CN[C@@H](Cc1ccccc1)C(=O)O; hPhe = N[C@@H](CCc1ccccc1)C(=O)O; 3Pal = N[C@@H](Cc1cccnc1)C(=O)O; Tic = O=C(O)[C@@H]1Cc2ccccc2CN1; Phg = N[C@H](C(=O)O)c1ccccc1; X9 = O=C(C1CNCCN1[*:1])[*:2]; CO = O=C([*:1])[*:2]; Bn = c1ccc(C*)cc1

SST2, sequence (P30874 whole entry, the tested form may be a part): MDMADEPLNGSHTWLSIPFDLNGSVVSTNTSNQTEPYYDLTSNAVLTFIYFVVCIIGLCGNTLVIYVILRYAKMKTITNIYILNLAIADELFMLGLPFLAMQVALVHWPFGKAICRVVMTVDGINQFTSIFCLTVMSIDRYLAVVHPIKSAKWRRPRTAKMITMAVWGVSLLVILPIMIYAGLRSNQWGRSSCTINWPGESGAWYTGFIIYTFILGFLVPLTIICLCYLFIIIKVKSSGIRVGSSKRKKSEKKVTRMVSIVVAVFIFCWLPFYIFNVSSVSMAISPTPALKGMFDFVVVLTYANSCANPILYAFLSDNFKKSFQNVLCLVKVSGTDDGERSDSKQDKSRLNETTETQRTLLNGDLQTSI
SST5, sequence (P35346 whole entry): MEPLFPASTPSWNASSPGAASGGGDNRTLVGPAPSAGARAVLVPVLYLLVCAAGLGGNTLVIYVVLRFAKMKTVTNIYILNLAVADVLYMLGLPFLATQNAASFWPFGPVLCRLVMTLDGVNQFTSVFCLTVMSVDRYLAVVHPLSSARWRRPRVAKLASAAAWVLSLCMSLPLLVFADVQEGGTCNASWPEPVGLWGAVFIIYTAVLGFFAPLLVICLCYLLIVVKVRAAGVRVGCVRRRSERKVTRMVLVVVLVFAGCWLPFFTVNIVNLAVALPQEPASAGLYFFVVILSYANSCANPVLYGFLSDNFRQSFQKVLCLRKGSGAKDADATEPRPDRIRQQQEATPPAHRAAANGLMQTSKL

Consider `NCCNC(=O)O[C@@H]1C[C@H]2C(=O)N[C@H](CCc3ccccc3)C(=O)N[C@H](Cc3c[nH]c4ccccc34)C(=O)N[C@@H](CN3CCNCC3)C(=O)N[C@@H](Cc3ccc(OCc4ccccc4)cc3)C(=O)N3Cc4ccccc4C[C@H]3C(=O)N2C1` [Example 25] (cyclo([Hyp]([CO-Ethylenediamine])[d(hPhe)][dW][Ala(piperazin-1-yl)]Y(Bn)[Tic])), for which, on SST2, the Emax came to 100% and the EC50 is 200 nM. For the same molecule, at SST5, the Emax worked out at 102%, the EC50 was 0.126 nM and the “SST5/2 Selectivity” value is recorded as 1351.8.
Consider `COc1cccc2[nH]cc(C[C@H]3NC(=O)[C@@H](CCc4ccccc4)NC(=O)[C@@H]4COCCN4C(=O)[C@@H]4Cc5ccccc5CN4C(=O)[C@H](Cc4ccc(OCc5ccccc5)cc4)NC(=O)[C@H](CN4CCNCC4)NC3=O)c12` [Example 63] (cyclo([Tic][Morpholine(3S-CO)][d(hPhe)][dTrp(4-OMe)][Ala(piperazin-1-yl)]Y(Bn))), for which, at SST2, the Emax came to 102% and the EC50 is 63.1 nM. Besides, at SST5, the Emax stood at 104%, the EC50 was 2.51 nM and the “SST5/2 Selectivity” value stood at 24.4.
With `COc1ccc(C[C@@H]2NC(=O)[C@H](Cc3ccc(OCc4ccccc4)cc3)NC(=O)[C@H](CC3CCNCC3)NC(=O)[C@@H](Cc3c[nH]c4ccccc34)NC(=O)[C@H](c3ccccc3)NC(=O)[C@@H]3C[C@@H](OC(=O)NCCN)CN3C2=O)cc1` [Example 9] (cyclo([Hyp]([CO-Ethylenediamine])[Phg][dW][Ala(piperidin-4-yl)]Y(Bn)Y(Me))), at SST2, the Emax came out at 102% and the EC50 was 50.1 nM. On SST5, the Emax was 106%, the EC50 is 2.51 nM and the “SST5/2 Selectivity” value amounted to 23.3.
For the molecule `Cc1cccc2[nH]cc(C[C@H]3NC(=O)[C@H](c4ccccc4)NC(=O)[C@@H]4C[C@@H](OC(=O)NCCN)CN4C(=O)[C@H](Cc4ccccc4)NC(=O)[C@H](Cc4ccc(OCc5ccccc5)cc4)NC(=O)[C@H](CC4CCNCC4)NC3=O)c12` [Example 4] (cyclo(F[Hyp]([CO-Ethylenediamine])[Phg][dTrp(4-Me)][Ala(piperidin-4-yl)]Y(Bn))), on SST2, the pEC50 was 6.60 and the Emax was found to be 103%. On SST5, the pEC50 is 7.90, the Emax was 105% and the “SST5/2 Selectivity” value worked out at 23.6.
For the molecule `O=C1N[C@@H](Cc2ccc(OCc3ccccc3)cc2)C(=O)N[C@@H](Cc2cccnc2)C(=O)N2C[C@H](Oc3ccncc3)C[C@H]2C(=O)N[C@H](CCc2ccccc2)C(=O)N[C@@H](Cc2c[nH]c3ccccc23)C(=O)N[C@H]1CC1CCNCC1` [Example 24] (cyclo([3Pal][X2][d(hPhe)]W[Ala(piperidin-4-yl)]Y(Bn))), at SST2, the Emax was 46.8% and the EC50 was > 10000 nM. Moreover, at SST5, the Emax worked out at 102%, the EC50 was 100 nM and the “SST5/2 Selectivity” value is 110.6.
With somatostatin 28 [reference compound], at SST2 (setting [1]), the “SST2 (EMax)” value amounted to 100.4%. The “SST5 (EMax)” value at SST5 (setting [1]) came out at 101.0%. The “SST5/2 Selectivity” value on SST5 turned out to be 4.6.
Turning to `COc1cccc2[nH]cc(C[C@H]3NC(=O)[C@H](CCc4ccccc4)NC(=O)[C@@H]4COCCN4C(=O)[C@@H]4Cc5ccccc5CN4C(=O)[C@H](Cc4ccc(OCc5ccccc5)cc4)NC(=O)[C@H](CC4CCNCC4)NC3=O)c12` [Example 46] (cyclo([Tic][Morpholine(3S-CO)][hPhe][dTrp(4-OMe)][Ala(piperidin-4-yl)]Y(Bn))), at SST2, the Emax worked out at 98.6% and the EC50 is 39.8 nM. Moreover, on SST5, the Emax is 102%, the EC50 is 0.0794 nM and the “SST5/2 Selectivity” value worked out at 527.6.
For the molecule `NCCNC(=O)O[C@@H]1C[C@H]2C(=O)N[C@@H](CCc3ccccc3)C(=O)N[C@H](Cc3c[nH]c4ccccc34)C(=O)N[C@@H](CC3CCNCC3)C(=O)N[C@@H](Cc3ccc(OCc4ccccc4)cc3)C(=O)N3Cc4ccccc4C[C@H]3C(=O)N2C1` [Example 17] (cyclo([Hyp]([CO-Ethylenediamine])[hPhe][dW][Ala(piperidin-4-yl)]Y(Bn)[Tic])), at SST2, the Emax was determined as 97.3% and the EC50 is 398 nM. At SST5, the maximal response (Emax) was 104%, the EC50 is 0.501 nM and the “SST5/2 Selectivity” value amounted to 789.4.
As for `CN1C(=O)[C@H](Cc2ccc(OCc3ccccc3)cc2)NC(=O)[C@H](CN2CCNCC2)NC(=O)[C@@H](Cc2c[nH]c3ccccc23)NC(=O)[C@H](CCc2ccccc2)NC(=O)[C@@H]2C[C@@H](OC(=O)NCCN)CN2C(=O)[C@@H]1Cc1ccccc1` [Example 57] (cyclo([Hyp]([CO-Ethylenediamine])[hPhe][dW][Ala(piperazin-1-yl)]Y(Bn)[NMeF])), on SST2, the Emax was 96.5% and the EC50 was 200 nM. Further, on SST5, the Emax was determined as 102%, the EC50 is 0.501 nM and the “SST5/2 Selectivity” value worked out at 404.6.
In the case of `NCCNC(=O)O[C@@H]1C[C@H]2C(=O)N[C@@H](c3ccccc3)C(=O)N[C@H](Cc3c[nH]c4ccccc34)C(=O)N[C@@H](CC3CCNCC3)C(=O)N[C@@H](Cc3ccc(OCc4ccccc4)cc3)C(=O)N[C@@H](Cc3cccnc3)C(=O)N2C1` [Example 11] (cyclo([3Pal][Hyp]([CO-Ethylenediamine])[Phg][dW][Ala(piperidin-4-yl)]Y(Bn))), on SST2, the Emax amounted to 98% and the EC50 was 200 nM. For the same molecule, on SST5, the Emax is 99.4%, the EC50 was 3.98 nM and the “SST5/2 Selectivity” value turned out to be 48.2.
With `COc1ccc(C[C@@H]2NC(=O)[C@H](Cc3ccc(OCc4ccccc4)cc3)NC(=O)[C@H](CC3CCNCC3)NC(=O)[C@@H](Cc3c[nH]c4ccccc34)NC(=O)[C@@H](CCc3ccccc3)NC(=O)[C@@H]3C[C@@H](OC(=O)NCCN)CN3C2=O)cc1` [Example 55] (cyclo([Hyp]([CO-Ethylenediamine])[d(hPhe)][dW][Ala(piperidin-4-yl)]Y(Bn)Y(Me))), on SST2, the Emax was found to be 85.9% and the EC50 is > 10000 nM. Further, on SST5, the Emax was found to be 106%, the EC50 was 10 nM and the “SST5/2 Selectivity” value is reported as 1120.0.
In the same order, the values of `NCCNC(=O)O[C@@H]1C[C@H]2C(=O)N[C@@H](CCc3ccccc3)C(=O)N[C@H](Cc3c[nH]c4ccccc34)C(=O)N[C@@H](CN3CCNCC3)C(=O)N[C@@H](Cc3ccc(OCc4ccccc4)cc3)C(=O)N[C@@H](Cc3cccnc3)C(=O)N2C1` [Example 14] (cyclo([3Pal][Hyp]([CO-Ethylenediamine])[hPhe][dW][Ala(piperazin-1-yl)]Y(Bn))) are 99.6%, 158 nM, 96.7%, 0.0794 nM and 1876.8.
Regarding `NCCNC(=O)O[C@@H]1C[C@H]2C(=O)N[C@@H](CCc3ccccc3)C(=O)N[C@@H](Cc3c[nH]c4ccccc34)C(=O)N[C@@H](CN3CCNCC3)C(=O)N[C@@H](Cc3ccc(OCc4ccccc4)cc3)C(=O)N[C@@H](Cc3cccnc3)C(=O)N2C1` [Example 34] (cyclo([3Pal][Hyp]([CO-Ethylenediamine])[hPhe]W[Ala(piperazin-1-yl)]Y(Bn))), on SST2, the Emax turned out to be 49.2% and the EC50 is 3980 nM. For the same molecule, at SST5, the Emax came out at 102%, the EC50 is 1 nM and the “SST5/2 Selectivity” value is recorded as 3271.8.
Consider `NCCNC(=O)O[C@@H]1C[C@H]2C(=O)N[C@@H](c3ccccc3)C(=O)N[C@H](Cc3c[nH]c4ccccc34)C(=O)N[C@@H](CC3CCNCC3)C(=O)N[C@@H](Cc3ccc(OCc4ccccc4)cc3)C(=O)N[C@@H](Cc3cccc(Cl)c3)C(=O)N2C1` [Example 7] (cyclo([Hyp]([CO-Ethylenediamine])[Phg][dW][Ala(piperidin-4-yl)]Y(Bn)[Phe(3-Cl)])), for which, at SST2, the Emax amounted to 99.2% and the EC50 is 10 nM. For the same molecule, at SST5, the Emax worked out at 102%, the EC50 was 0.501 nM and the “SST5/2 Selectivity” value is on record as 19.3.
Turning to `COc1cccc2[nH]cc(C[C@H]3NC(=O)[C@H](CCc4ccccc4)NC(=O)[C@@H]4COCCN4C(=O)[C@@H]4Cc5ccccc5CN4C(=O)[C@H](Cc4ccc(OCc5ccccc5)cc4)NC(=O)[C@H](CN4CCNCC4)NC3=O)c12` [Example 68] (cyclo([Tic][Morpholine(3S-CO)][hPhe][dTrp(4-OMe)][Ala(piperazin-1-yl)]Y(Bn))), at SST2, the Emax stood at 99.1% and the EC50 is 251 nM. At SST5, the Emax was determined as 98.8%, the EC50 is 0.316 nM and the “SST5/2 Selectivity” value was determined as 791.6.
For `O=C1N[C@@H](CCc2ccccc2)C(=O)N[C@H](Cc2c[nH]c3ccccc23)C(=O)N[C@@H](CN2CCNCC2)C(=O)N[C@@H](Cc2ccc(OCc3ccccc3)cc2)C(=O)N2Cc3ccccc3C[C@H]2C(=O)N2CCNCC12` (some centres unmarked) [Example 65] (cyclo([Tic][X9][hPhe][dW][Ala(piperazin-1-yl)]Y(Bn))) the same measures were 91.8%, 1000 nM, 99.4%, 0.398 nM and 2293.7.
Turning to `O=C1N[C@@H](Cc2cccnc2)C(=O)N2C[C@H](Oc3ccncc3)C[C@H]2C(=O)N[C@@H](CCc2ccccc2)C(=O)N[C@H](Cc2c[nH]c3ccccc23)C(=O)N[C@@H](CC2CCNCC2)C(=O)N[C@H]1Cc1ccc(OCc2ccccc2)cc1` [Example 22] (cyclo([3Pal][X2][hPhe][dW][Ala(piperidin-4-yl)]Y(Bn))), at SST2, the Emax came to 100% and the EC50 is 79.4 nM. In addition, on SST5, the Emax worked out at 102%, the EC50 was 0.501 nM and the “SST5/2 Selectivity” value is 142.6.

These data come from patent US11987648B2, “Cyclohexapeptides as selective somatostatin SST5 receptor agonists” (Heptares Therapeutics Limited, priority 2018, dated 2024).
